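1) Cells in 96-well plates. 2) Compound, 48 h, 5 concentrations. 3) Linear interpolation between surrounding doses. 4) Unreached endpoint = highest concentration. The concentration for 50% growth inhibition is given as GI50.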 The source made the active and inactive calls. No stated cut-off is given here; in the data, active = GI50 up to about 1.1 µM and inactive = higher.
What was measured:
Test in all cases: inhibition of tumour cell growth, NCI panel, 48 h
UO-31 = tested on: UO-31
SF-295 = tested on: SF-295
PC-3 = tested on: PC-3
DU-145 = tested on: DU-145
RXF 393 = tested on: RXF 393
UACC-257 = tested on: UACC-257
NCI-H226 = tested on: NCI-H226
ACHN = tested on: ACHN
HOP-62 = tested on: HOP-62
A549 = tested on: A549
OVCAR-5 = tested on: OVCAR-5
A498 = tested on: A498
HT-29 = tested on: HT-29
K562 = tested on: K562
NCI-H23 = tested on: NCI-H23
SR = tested on: SR
SK-MEL-2 = tested on: SK-MEL-2
Malme-3M = tested on: Malme-3M
KM12 = tested on: KM12
T47D = tested on: T47D

SMILES | GI50 (UO-31) | GI50 (SF-295) | GI50 (PC-3) | GI50 (DU-145) | GI50 (RXF 393) | GI50 (UACC-257) | GI50 (NCI-H226) | GI50 (ACHN) | GI50 (HOP-62) | GI50 (A549) | GI50 (OVCAR-5) | GI50 (A498) | GI50 (HT-29) | GI50 (K562) | GI50 (NCI-H23) | GI50 (SR) | GI50 (SK-MEL-2) | GI50 (Malme-3M) | GI50 (KM12) | GI50 (T47D)
CCCCCCN1CCc2c(C)c(C#N)c3nc4ccccc4n3c21 | > 100 µM (inactive) | > 100 µM (inactive) | 7.82 µM (inactive) | > 100 µM (inactive) | 20.7 µM (inactive) | 16.3 µM (inactive) | > 100 µM (inactive) | > 100 µM (inactive) | 92.9 µM (inactive) | 50.2 µM (inactive) | > 100 µM (inactive) | 76.6 µM (inactive) | 18.5 µM (inactive) | > 100 µM (inactive) | 45 µM (inactive) | > 100 µM (inactive) | 22.2 µM (inactive) | 83.2 µM (inactive) |  | 
Nc1ncnc2c1ccn2C/C=C/CO | > 100 µM (inactive) | > 100 µM (inactive) | > 100 µM (inactive) | > 100 µM (inactive) | > 100 µM (inactive) | > 100 µM (inactive) |  | > 100 µM (inactive) | > 100 µM (inactive) | > 100 µM (inactive) | > 100 µM (inactive) | > 100 µM (inactive) | > 100 µM (inactive) | > 100 µM (inactive) | > 100 µM (inactive) |  | > 100 µM (inactive) | > 100 µM (inactive) | > 100 µM (inactive) | > 100 µM (inactive)
COCCOC(=O)NCn1cc(-c2ccccc2)nn1 |  | > 100 µM (inactive) | > 100 µM (inactive) | > 100 µM (inactive) |  | > 100 µM (inactive) | 13.8 µM (inactive) | > 100 µM (inactive) | > 100 µM (inactive) | > 100 µM (inactive) | > 100 µM (inactive) |  | > 100 µM (inactive) | > 100 µM (inactive) | > 100 µM (inactive) | > 100 µM (inactive) | > 100 µM (inactive) | > 100 µM (inactive) | > 100 µM (inactive) | 
O=Cc1c2c(cc3c1CC1(C3)Cc3cc4c(c(C=O)c3C1)CCC4)CCC2 | 2.37 µM (inactive) | 59.3 µM (inactive) | 30.3 µM (inactive) |  | 41.3 µM (inactive) | 34.8 µM (inactive) | 29.1 µM (inactive) | 16.6 µM (inactive) | 17.1 µM (inactive) | 30.3 µM (inactive) | > 100 µM (inactive) | 30.7 µM (inactive) | 31.3 µM (inactive) | 14.4 µM (inactive) | 45.3 µM (inactive) | 35.1 µM (inactive) | 21.3 µM (inactive) | 27.5 µM (inactive) |  | 46.1 µM (inactive)
Cc1c(N/C=C(\C#N)C(=O)c2ccc(Cl)cc2)c(=O)n(-c2ccccc2)n1C | 64.9 µM (inactive) | > 100 µM (inactive) | > 100 µM (inactive) | > 100 µM (inactive) | > 100 µM (inactive) | > 100 µM (inactive) | 54 µM (inactive) |  |  | > 100 µM (inactive) | > 100 µM (inactive) | 48.8 µM (inactive) |  | 97.9 µM (inactive) | > 100 µM (inactive) |  | 62.1 µM (inactive) | > 100 µM (inactive) | > 100 µM (inactive) | 
CC1=C(O)C(=O)C[C@]2(C)[C@H]3CC=C4[C@@H]5CC(C)(C)CC[C@@H]5C(=O)[C@H](O)[C@@]4(C)[C@]3(C)CC[C@@H]12 | > 50 µM (inactive) | 37.8 µM (inactive) | 16.7 µM (inactive) | > 50 µM (inactive) | 10 µM (inactive) | > 50 µM (inactive) | > 50 µM (inactive) | 41.4 µM (inactive) | 30.7 µM (inactive) | 24.8 µM (inactive) | > 50 µM (inactive) | > 50 µM (inactive) | > 50 µM (inactive) |  | > 50 µM (inactive) |  | 37.4 µM (inactive) | > 50 µM (inactive) | > 50 µM (inactive) | > 50 µM (inactive)
CN(c1ccccc1Cl)S(=O)(=O)c1ccccc1 | 52.4 µM (inactive) | > 100 µM (inactive) | 44.3 µM (inactive) | > 100 µM (inactive) |  | > 100 µM (inactive) | > 100 µM (inactive) | > 100 µM (inactive) | > 100 µM (inactive) | > 100 µM (inactive) | > 100 µM (inactive) |  | > 100 µM (inactive) | 51.8 µM (inactive) | 54.5 µM (inactive) | 55.8 µM (inactive) | > 100 µM (inactive) | > 100 µM (inactive) | > 100 µM (inactive) | 
CC(C)(C)OC(=O)NCCCC(=O)NC1(c2cc3ccccc3s2)CCCCC1 | 4.61 µM (inactive) | 16.6 µM (inactive) |  | 24.8 µM (inactive) | 9.42 µM (inactive) | 13.6 µM (inactive) |  | 22.8 µM (inactive) | 21.4 µM (inactive) | 25.6 µM (inactive) |  | 17.6 µM (inactive) | 13.1 µM (inactive) | 19.5 µM (inactive) | 27.2 µM (inactive) | 12.6 µM (inactive) |  | 16.2 µM (inactive) | 17 µM (inactive) | 9.66 µM (inactive)
O=C(/C=C\c1ccccc1)Oc1ccc(/C=C2\CCCCC2=O)cc1 | 64.7 µM (inactive) | 41.2 µM (inactive) | 46.9 µM (inactive) | > 100 µM (inactive) |  | 16.6 µM (inactive) |  | 37.2 µM (inactive) | 72.1 µM (inactive) | 46.6 µM (inactive) | > 100 µM (inactive) | > 100 µM (inactive) | 17.9 µM (inactive) |  | 45.8 µM (inactive) |  | 39.2 µM (inactive) | 38.9 µM (inactive) | 44 µM (inactive) | 92.5 µM (inactive)
COc1cc2c(c(O)c1O)-c1ccc(OC)c(=O)cc1C(NC(C)=O)CC2 (configuration not stated) | > 100 µM (inactive) | 12.5 µM (inactive) |  |  | 14.6 µM (inactive) | 30.1 µM (inactive) | 43.2 µM (inactive) | 74.6 µM (inactive) | 20.5 µM (inactive) | 36.4 µM (inactive) | 76.6 µM (inactive) | 34.1 µM (inactive) | 3.91 µM (inactive) | 3.64 µM (inactive) | 5.06 µM (inactive) | 5.69 µM (inactive) | 3.13 µM (inactive) | 16.5 µM (inactive) | 3.13 µM (inactive) | 
Nc1ccccc1C(=O)/C=C/c1c(O)ccc2ccccc12 | > 100 µM (inactive) | > 100 µM (inactive) |  |  | > 100 µM (inactive) | > 100 µM (inactive) | > 100 µM (inactive) | > 100 µM (inactive) | > 100 µM (inactive) | > 100 µM (inactive) | > 100 µM (inactive) | > 100 µM (inactive) | > 100 µM (inactive) | > 100 µM (inactive) | > 100 µM (inactive) | > 100 µM (inactive) | > 100 µM (inactive) | > 100 µM (inactive) | > 100 µM (inactive) | 
COc1ccccc1C(=O)c1c(NCc2ccccc2)c(=O)c1=O | > 100 µM (inactive) | > 100 µM (inactive) | > 100 µM (inactive) | > 100 µM (inactive) | 0.0708 µM (active) | > 100 µM (inactive) | > 100 µM (inactive) | > 100 µM (inactive) | > 100 µM (inactive) | 0.424 µM (active) | > 100 µM (inactive) | > 100 µM (inactive) | > 100 µM (inactive) | 27.5 µM (inactive) | > 100 µM (inactive) |  | > 100 µM (inactive) | 23.4 µM (inactive) | > 100 µM (inactive) | 
COc1ccc(OCC(=N/NC(=O)c2ccncc2)/N=C/c2cccnc2)cc1 |  | 84.7 µM (inactive) | > 100 µM (inactive) | > 100 µM (inactive) | 35.8 µM (inactive) | > 100 µM (inactive) | 61.1 µM (inactive) | 72.8 µM (inactive) | 72.1 µM (inactive) | 92.9 µM (inactive) | > 100 µM (inactive) | 65.3 µM (inactive) | > 100 µM (inactive) | 44.7 µM (inactive) | > 100 µM (inactive) |  | > 100 µM (inactive) | 43.6 µM (inactive) | 50.9 µM (inactive) | > 100 µM (inactive)
C[N+](C)(C)CC(=O)NC(=O)N/N=C\C(CC#N)CN(Cc1ccccc1)Cc1ccccc1 (configuration not stated) | > 100 µM (inactive) | 38 µM (inactive) |  |  | > 100 µM (inactive) | > 100 µM (inactive) | 37.5 µM (inactive) | > 100 µM (inactive) | > 100 µM (inactive) | > 100 µM (inactive) | > 100 µM (inactive) | > 100 µM (inactive) | > 100 µM (inactive) | > 100 µM (inactive) | > 100 µM (inactive) | > 100 µM (inactive) | > 100 µM (inactive) | 58.2 µM (inactive) | > 100 µM (inactive) | 
CN(CC(=O)O)c1ncc2c(n1)CCCC2 | > 100 µM (inactive) | > 100 µM (inactive) | > 100 µM (inactive) | > 100 µM (inactive) | > 100 µM (inactive) | > 100 µM (inactive) | > 100 µM (inactive) | > 100 µM (inactive) | > 100 µM (inactive) | > 100 µM (inactive) | > 100 µM (inactive) | > 100 µM (inactive) | > 100 µM (inactive) | > 100 µM (inactive) | > 100 µM (inactive) | > 100 µM (inactive) | > 100 µM (inactive) | > 100 µM (inactive) | > 100 µM (inactive) | 
COc1ccccc1N1C(=O)/C(=C\c2cc(OC)c(OC)c(OC)c2)SC1c1ccccc1 (configuration not stated) | 11.5 µM (inactive) | 23.1 µM (inactive) |  | > 100 µM (inactive) | 14.5 µM (inactive) | 36.1 µM (inactive) | 28.9 µM (inactive) | 44.4 µM (inactive) | 27.8 µM (inactive) | 57.4 µM (inactive) | > 100 µM (inactive) | > 100 µM (inactive) | 45.3 µM (inactive) | 4.33 µM (inactive) | 31.4 µM (inactive) | 13.3 µM (inactive) | 68.4 µM (inactive) | 20.3 µM (inactive) | 21.1 µM (inactive) | 36.6 µM (inactive)

— ChEMBL document CHEMBL1201862, “PubChem BioAssay data set” (2004)
